In patent EP2204398A1, “CA[…] DERIVATIVE AND USES OF THE SAME” (NanoCarrier Co., Ltd., priority 2008, dated 2009):

Columns and labels:
[1] = Test for blood kinetics in rat (CPT concentration in blood plasma by HPLC); format: in vivo, male Wister rat; details: tail vein, camptothecin in DMSO, administered in the same manner, n=1
Method: In a sample vial, 50 mg of the complex obtained in Example 1 which was weighed precisely was placed, and 1 mL of purified water was added thereto, followed by suspending the polymer. The resulting suspension was stirred for one day and night, and sonicated using Biodisruptor (Nihonseiki Kaisha Ltd., High Power Unit) with ice cooling for 10 minutes, followed by filtration through a 0.22 µm filter (Millipore, MILLEX (registered trademark) GP PES) and recovery of the resulting filtrate. […]
To 30 µL of the collected rat blood plasma, 100 µL of acetonitrile and 20 µL of 10 mM HCl were sequentially added, and the resulting mixture was stirred. […] The filtrate was filled in an HPLC sample vial, and the concentration of free CPT in the blood plasma was determined.
The HPLC conditions were as followed. Unless otherwise specified, the HPLC analysis of CPT was carried out under the same conditions. • System: Waters Alliance System • Column: Tosoh TSK-gel ODS-80TM (Φ4.6 × 150 mm) (40°C) • Mobile phase: 25 mM ammonium formate buffer (pH 3.0)/acetonitrile=70/30 • Flow rate: 1 mL/min. • Detection: fluorescence (Ex: 370 nm, Em: 420 nm) Injection volume: 20 µL

[2] = Changes in body weight in PC-3 tumor-bearing animals, test 1; format: in vivo, male nude mice; details: CPT DMSO solution 7 mg/kg, tail vein, 3 times at intervals of 4 days, n=7
Method: (§1) PC-3 cells (purchased from ATCC via Summit Pharmaceuticals International Corporation; which provision is also applied hereinafter) were cultured using RPMI1640 + 10% FBS medium under 5% CO2 at 37°C to allow their growth to attain the cell number required for transplantation. The cells were suspended in physiological saline and subcutaneously inoculated to the back of male nude mice [Blab nu/nu, 8 weeks old, Charles River Laboratories Japan] such that the dose of 3 × 10^6 cells/100 µL per mouse was attained. Thereafter, the nude mice were kept for 7 days, and when the tumor volume reached 83.3 t 6.2 mm^3 (average ± SE, wherein SE indicates standard error; which provision is also applied hereinafter), administration of drugs were started. A total of 3 times of administration through the tail vein at intervals of 4 days were scheduled, and changes in the tumor volume and body weight with time were measured for 3 groups (n=7), that is, (1) control (untreated); (2) the CPT DMSO solution 7 mg/kg; and (3) PEG-pAsp-CPT 3 mg/kg (the dose is based on the amount of camptothecin (mg/kg/injection)). The major diameter (a mm) and the minor diameter (b mm) of each tumor were measured using an electronic caliper (Mitutoyo Corporation), and the tumor volume was calculated according to the following equation.
(§2) Tumor volume (mm^3) = a × b^2 /2 [formula] […]

[3] = system: Human Prostate Cancer PC-3 Cells; test: Test for pharmacological effect using human prostate cancer PC-3 cells - 1 (tumor volume); format: in vivo, male nude mice; details: CPT DMSO solution 7 mg/kg, tail vein, 3 times at intervals of 4 days, n=7
Method: as §1, §2

SMILES: CC[C@@]1(O)C(=O)OCc2c1cc1n(c2=O)Cc2cc3ccccc3nc2-1 [CPT solution, camptothecin]
- blood concentration [1]: decreased rapidly
- body weight decrease at maximum [2]: ≥ 10%
- tumor growth inhibition effect in comparison with the control group [3]: hardly observed
